The compounds below were run against T1, human plasma kallikrein (Homo sapiens, UniProt P03952) (assay: In vitro enzyme inhibition of human plasma kallikrein (Pro-Phe-Arg-AMC cleavage)). Conditions: human Plasma Kallikrein (Abcam), substrate Pro-Phe-Arg-AMC, 37° C., Tris-HCl pH 7.5; read-out: hPK IC50.
T1 construct: purchased Abcam
Format: biochemical
Method: The ability of the compounds disclosed herein to inhibit human plasma kallikrein activity was quantified according to the procedures below.
A 10 mM solution of the test compound was made in DMSO. This solution was serially diluted 1:5 in DMSO to yield 2000, 400, 80, 16, 3.2, 0.64, 0.128, 0.0256 and […] compound test solutions. A control tube containing only DMSO is included. 16 μL of each compound test solution was combined with 384 μL of assay buffer (50 mM Tris-HCl pH 7.5, 150 mM NaCl, 0.01% Triton X-100) to yield a “4× test compound buffer stock”. Separately, a 40 nM solution of human Plasma Kallikrein (Abcam) and a 93.6 μM solution Pro-Phe-Arg-AMC (Bachem) were made using assay buffer. These solutions are hereby referred to as 4× hPK and 2×PFR-AMC, respectively.
60 μL of each 4× test compound buffer stock was combined with 60 μL of 4× hPK to yield 120 μL of “2× test compound buffer stock/2× hPK”. 50 μL was removed from this mixture and placed into duplicate wells on a Microfluor 1Black U-bottom microtiter plate (Thermo Scientific). This plate was incubated for 5 minutes at 37° C. To each well, 50 μL of pre-warmed 2×PFR-AMC was added to start the enzymatic reaction. Cleavage of PFR-AMC was monitored in a Biotek Synergy H4 reader set at 37° C. Readings are taken every 43 seconds for 1 hour. The highest mean velocity over 20 reads (˜15 minutes) is used to calculate the IC50. The IC50 is calculated using the Gen5 (Biotek Instruments).
The ability of the compounds in Table 4 to inhibit human plasma kallikrein activity was determined.

T1 sequence (P03952 391-638 limits assumed): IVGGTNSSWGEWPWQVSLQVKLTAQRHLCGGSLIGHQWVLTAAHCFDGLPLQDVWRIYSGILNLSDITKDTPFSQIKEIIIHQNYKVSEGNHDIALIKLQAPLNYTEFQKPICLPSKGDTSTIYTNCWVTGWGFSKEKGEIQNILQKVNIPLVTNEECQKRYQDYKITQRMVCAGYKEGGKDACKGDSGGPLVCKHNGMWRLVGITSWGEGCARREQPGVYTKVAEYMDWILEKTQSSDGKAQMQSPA
T1 sequence (P03952 20-390 partner limits assumed): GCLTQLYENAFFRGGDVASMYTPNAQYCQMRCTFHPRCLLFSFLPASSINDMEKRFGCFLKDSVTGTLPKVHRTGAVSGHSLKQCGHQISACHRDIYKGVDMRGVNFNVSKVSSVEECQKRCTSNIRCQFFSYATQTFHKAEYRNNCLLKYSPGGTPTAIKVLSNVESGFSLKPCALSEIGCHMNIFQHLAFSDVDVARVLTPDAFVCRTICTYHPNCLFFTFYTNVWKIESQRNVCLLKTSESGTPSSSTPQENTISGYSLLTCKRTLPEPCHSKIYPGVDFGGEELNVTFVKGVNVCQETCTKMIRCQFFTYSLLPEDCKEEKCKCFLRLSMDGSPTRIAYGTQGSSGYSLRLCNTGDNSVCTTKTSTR

Compound	IC50 [nM]
Cc1cc(N)nc(C)c1CNc1nccc2nc(Cc3ccc4ncc(Cl)cc4c3)[nH]c12 [Example 4, N-((6-amino-2,4-dimethylpyridin-3-yl)methyl)-2-((3-chloroquinolin-6-yl)methyl)-3H-imidazo[4,5-c]pyridin-4-amine]	1000 to 10000
Clc1cnc2ccc(Cc3ccc4onc(NCc5cnc6[nH]cc(Cl)c6c5)c4c3)cc2c1 [Example 1, N-((3-chloro-1H-pyrrolo[2,3-b]pyridin-5-yl)methyl)-5-((3-chloroquinolin-6-yl)methyl)benzo[d]isoxazol-3-amine]	100 to 1000
FC(F)(F)c1cnc2ccc(Cc3nc4ncnc(NCc5cnc6[nH]cc(Cl)c6c5)c4[nH]3)cc2c1 [Example 15, N-((3-chloro-1H-pyrrolo[2,3-b]pyridin-5-yl)methyl)-8-((3-(trifluoromethyl)quinolin-6-yl)methyl)-7H-purin-6-amine]	100 to 1000
Clc1cnc2ccc(Cc3ccc4[nH]nc(NCc5cnc6[nH]cc(Cl)c6c5)c4c3)cc2c1 [Example 3, N-((3-chloro-1H-pyrrolo[2,3-b]pyridin-5-yl)methyl)-5-((3-chloroquinolin-6-yl)methyl)-1H-indazol-3-amine]	100 to 1000
Fc1cc2[nH]cc(Cl)c2cc1CNc1ncnc2nc(Cc3ccc4ncc(Cl)cc4c3)[nH]c12 [Example 5]	≤ 100
Clc1cnc2ccc(Cc3nc4ncnc(NCc5cnc6[nH]cc(Cl)c6c5)c4[nH]3)cc2c1 [Example 8, N-((3-chloro-1H-pyrrolo[2,3-b]pyridin-5-yl)methyl)-8-((3-chloroquinolin-6-yl)methyl)-7H-purin-6-amine]	≤ 100
Cn1nc(NCc2cnc3[nH]cc(Cl)c3c2)c2cc(Cc3ccc4ncc(Cl)cc4c3)ccc21 [Example 2, N-((3-chloro-1H-pyrrolo[2,3-b]pyridin-5-yl)methyl)-5-((3-chloroquinolin-6-yl)methyl)-1-methyl-1H-indazol-3-amine]	100 to 1000
Fc1c(CNc2ncnc3nc(Cc4ccc5ncc(C(F)(F)F)cc5c4)[nH]c23)ccc2[nH]cc(Cl)c12 [Example 13, N-((3-chloro-4-fluoro-1H-indol-5-yl)methyl)-8-((3-(trifluoromethyl)quinolin-6-yl)methyl)-7H-purin-6-amine]	≤ 100
Cc1cc(N)nc(C)c1CNc1ncnc2nc(Cc3ccc4ncc(C(F)(F)F)cc4c3)[nH]c12 [Example 10, N-((6-amino-2,4-dimethylpyridin-3-yl)methyl)-8-((3-(trifluoromethyl)quinolin-6-yl)methyl)-7H-purin-6-amine]	≤ 100
Clc1cnc2ccc(Cc3cc4c(NCc5cnc6[nH]cc(Cl)c6c5)n[nH]c4cn3)cc2c1 [Example 20, N-((3-chloro-1H-pyrrolo[2,3-b]pyridin-5-yl)methyl)-5-((3-chloroquinolin-6-yl)methyl)-1H-pyrazolo[3,4-c]pyridin-3-amine]	100 to 1000
O=C(NCc1cc2c(Cl)c[nH]c2cc1F)c1ccc2c(c1)C(c1ccc3ncc(Cl)cc3c1)OC2 (stereo not shown) [Example 21, N-((3-chloro-6-fluoro-1H-indol-5-yl)methyl)-3-(3-chloroquinolin-6-yl)-1,3-dihydroisobenzofuran-5-carboxamide]	100 to 1000
Clc1c[nH]c2ncc(CNc3ncnc4nc(Cc5ccc6ncccc6c5)[nH]c34)cc12 [Example 17, N-((3-chloro-1H-pyrrolo[2,3-b]pyridin-5-yl)methyl)-8-(quinolin-6-ylmethyl)-7H-purin-6-amine]	100 to 1000
Clc1cnc2ccc(Cc3nc4ncnc(NCc5n[nH]c6ccc(Cl)cc56)c4[nH]3)cc2c1 [Example 6, N-((5-chloro-1H-indazol-3-yl)methyl)-8-((3-chloroquinolin-6-yl)methyl)-7H-purin-6-amine]	≤ 100
Cc1cc(N)nc(C)c1CNc1ncnc2cn(Cc3ccc4ncc(Cl)cc4c3)nc12 [Example 9, N-((6-amino-2,4-dimethylpyridin-3-yl)methyl)-2-((3-chloroquinolin-6-yl)methyl)-2H-pyrazolo[4,3-d]pyrimidin-7-amine]	≤ 100
Fc1cc2[nH]cc(Cl)c2cc1CNc1ncnc2nc(Cc3ccc4ncc(C(F)(F)F)cc4c3)[nH]c12 [Example 11, N-((3-chloro-6-fluoro-1H-indol-5-yl)methyl)-8-((3-(trifluoromethyl)quinolin-6-yl)methyl)-7H-purin-6-amine]	≤ 100
Cc1cc(N)nc(C)c1CNc1ncnc2nc(Cc3ccc4ncc(Cl)cc4c3)[nH]c12 [Example 19, N-((6-amino-2,4-dimethylpyridin-3-yl)methyl)-8-((3-chloroquinolin-6-yl)methyl)-7H-purin-6-amine]	≤ 100
Nc1nccc2cc(CNc3ncnc4nc(Cc5ccc6ncc(C(F)(F)F)cc6c5)[nH]c34)ccc12 [Example 14, 6-(((8-((3-(trifluoromethyl)quinolin-6-yl)methyl)-7H-purin-6-yl)amino)methyl)isoquinolin-1-amine]	≤ 100
Fc1c(CNc2ncnc3nc(Cc4ccc5ncc(Cl)cc5c4)[nH]c23)ccc2[nH]cc(Cl)c12 [Example 7, N-((3-chloro-4-fluoro-1H-indol-5-yl)methyl)-8-((3-chloroquinolin-6-yl)methyl)-7H-purin-6-amine]	≤ 100
FC(F)(F)c1cnc2ccc(Cc3nc4ncnc(NCc5n[nH]c6ccc(Cl)cc56)c4[nH]3)cc2c1 [Example 12, N-((5-chloro-1H-indazol-3-yl)methyl)-8-((3-(trifluoromethyl)quinolin-6-yl)methyl)-7H-purin-6-amine]	≤ 100

Source: patent US20190263818A1 (LifeSci Pharmaceuticals, Inc., priority 2015, published 2019)
